PubChem BioAssay AID1963444 (Molecular Pharmacology Branch, DTP, NCI, 2024)

Tested on: HSSY-II complex spheroid growth, percent test/control
Assay: Anticancer human tumor HSSY-II cell line growth inhibition [Asc];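 also: spheroids exposed to drug for 7 days before reading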
Conditions: for IC50: curve of first compound; for viability, T/C: stronger effect = lower value
Summary of the method: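 Complex spheroids combining tumor cells with HUVEC endothelial cells and human MSCs, at 37 degrees C, 5% CO2; agents tested alone or combined, half-log dilutions from at or near clinical Cmax, or 10 microM if Cmax unknown.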

[1] = second compound 0.01 µM, first compound 0.00316 µM
[2] = second compound 0.01 µM, first compound 0.01 µM
[3] = second compound 0.01 µM, first compound 0.0316 µM
[4] = second compound 0.01 µM, first compound 0.1 µM
[5] = second compound 0.01 µM, first compound 0.316 µM
[6] = second compound 0.01 µM, first compound 1 µM
[7] = second compound 0.0316 µM, first compound 0.00316 µM
[8] = second compound 0.0316 µM, first compound 0.01 µM
[9] = second compound 0.0316 µM, first compound 0.0316 µM
[10] = second compound 0.0316 µM, first compound 0.1 µM
[11] = second compound 0.0316 µM, first compound 0.316 µM
[12] = second compound 0.0316 µM, first compound 1 µM
[13] = second compound 0.1 µM, first compound 0.00316 µM
[14] = second compound 0.1 µM, first compound 0.01 µM
[15] = second compound 0.1 µM, first compound 0.0316 µM
[16] = second compound 0.1 µM, first compound 0.1 µM
[17] = second compound 0.1 µM, first compound 0.316 µM
[18] = second compound 0.1 µM, first compound 1 µM
[19] = second compound 0.316 µM, first compound 0.00316 µM
[20] = second compound 0.316 µM, first compound 0.01 µM
[21] = second compound 0.316 µM, first compound 0.0316 µM
[22] = second compound 0.316 µM, first compound 0.1 µM
[23] = second compound 0.316 µM, first compound 0.316 µM
[24] = second compound 0.316 µM, first compound 1 µM
[25] = second compound 1 µM, first compound 0.00316 µM
[26] = second compound 1 µM, first compound 0.01 µM
[27] = second compound 1 µM, first compound 0.0316 µM
[28] = second compound 1 µM, first compound 0.1 µM
[29] = second compound 1 µM, first compound 0.316 µM
[30] = second compound 1 µM, first compound 1 µM

| IC50 (second compound 0.01 µM) [nM] | IC50 (second compound 0.0316 µM) [nM] | IC50 (second compound 0.1 µM) [nM] | IC50 (second compound 0.316 µM) [nM] | IC50 (second compound 1 µM) [nM] | SMILES | viability, T/C [1] [%] | viability, T/C [2] [%] | viability, T/C [3] [%] | viability, T/C [4] [%] | viability, T/C [5] [%] | viability, T/C [6] [%] | viability, T/C [7] [%] | viability, T/C [9] [%] | viability, T/C [10] [%] | viability, T/C [15] [%] | viability, T/C [16] [%] | viability, T/C [21] [%] | viability, T/C [22] [%] | viability, T/C [27] [%] | viability, T/C [28] [%] | further results |
| --- | --- | --- | --- | --- | --- | --- | --- | --- | --- | --- | --- | --- | --- | --- | --- | --- | --- | --- | --- | --- | --- |
| 120 | 150 | 111 | 87.5 | 96 | CCN1CCN(Cc2ccc(Nc3ncc(F)c(-c4cc(F)c5nc(C)n(C(C)C)c5c4)n3)nc2)CC1 + CNC(C)C(=O)NC1CN(S(=O)(=O)c2cccc(S(=O)(=O)N3CCC4CCC(C(=O)NC(c5ccccc5)c5ccccc5)N4C(=O)C(NC(=O)C(C)NC)C3)c2)CCC2CCC(C(=O)NC(c3ccccc3)c3ccccc3)N2C1=O | 95.3 | 92.5 | 60.6 | 54.2 | 39.9 | 23.2 | 78.1 | 66.7 | 53.2 | 59.1 | 51.5 | 68.9 | 45.2 | 66.9 | 46.7 | viability, T/C [8]: 83.9%; viability, T/C [11]: 42.3%; viability, T/C [12]: 23.4%; viability, T/C [13]: 68.5%; viability, T/C [14]: 78.3%; viability, T/C [17]: 37.4%; viability, T/C [18]: 24.1%; viability, T/C [19]: 86.5%; viability, T/C [20]: 89%; viability, T/C [23]: 37.6%; viability, T/C [24]: 23.9%; viability, T/C [25]: 88%; viability, T/C [26]: 76.8%; viability, T/C [29]: 35.4%; viability, T/C [30]: 18.8% |
| > 100 | 22.5 | 24.3 | 15.3 | 82.5 | Cn1ncnc1[C@H]1c2n[nH]c(=O)c3cc(F)cc(c23)N[C@@H]1c1ccc(F)cc1 + CNC(C)C(=O)NC1CN(S(=O)(=O)c2cccc(S(=O)(=O)N3CCC4CCC(C(=O)NC(c5ccccc5)c5ccccc5)N4C(=O)C(NC(=O)C(C)NC)C3)c2)CCC2CCC(C(=O)NC(c3ccccc3)c3ccccc3)N2C1=O | 87.1 | 59.3 | 43.4 | 59.6 | – | – | 80.8 | 36.8 | 53.4 | 39.6 | 55.4 | 37.7 | 54.4 | 56.4 | 48.9 | viability, T/C (second compound 0.01 µM, first compound 0.000316 µM): 86.3%; viability, T/C (second compound 0.01 µM, first compound 0.001 µM): 86%; viability, T/C (second compound 0.0316 µM, first compound 0.000316 µM): 91.1%; viability, T/C (second compound 0.0316 µM, first compound 0.001 µM): 93.2%; viability, T/C [8]: 60.7%; viability, T/C (second compound 0.1 µM, first compound 0.000316 µM): 82.9%; viability, T/C (second compound 0.1 µM, first compound 0.001 µM): 67.6%; viability, T/C [13]: 76.1%; viability, T/C [14]: 58.3%; viability, T/C (second compound 0.316 µM, first compound 0.000316 µM): 93.8%; viability, T/C (second compound 0.316 µM, first compound 0.001 µM): 92.5%; viability, T/C [19]: 80.1%; viability, T/C [20]: 53%; viability, T/C (second compound 1 µM, first compound 0.000316 µM): 89.6%; viability, T/C (second compound 1 µM, first compound 0.001 µM): 84.5%; viability, T/C [25]: 82%; viability, T/C [26]: 72.2% |
| 2650 | 3380 | 3030 | 3220 | 2320 | O=C(c1cc(Cc2n[nH]c(=O)c3ccccc23)ccc1F)N1CCN(C(=O)C2CC2)CC1 + CNC(C)C(=O)NC1CN(S(=O)(=O)c2cccc(S(=O)(=O)N3CCC4CCC(C(=O)NC(c5ccccc5)c5ccccc5)N4C(=O)C(NC(=O)C(C)NC)C3)c2)CCC2CCC(C(=O)NC(c3ccccc3)c3ccccc3)N2C1=O | – | – | 89 | 102 | 91.5 | 83.5 | – | 86.3 | 88.3 | 74.5 | 81.9 | 95.1 | 90.6 | 95.3 | 96.2 | viability, T/C (second compound 0.01 µM, first compound 3.16 µM): 43.9%; viability, T/C (second compound 0.01 µM, first compound 10 µM): 11.6%; viability, T/C [11]: 87.4%; viability, T/C [12]: 73.3%; viability, T/C (second compound 0.0316 µM, first compound 3.16 µM): 53.3%; viability, T/C (second compound 0.0316 µM, first compound 10 µM): 7.19%; viability, T/C [17]: 64.6%; viability, T/C [18]: 73.8%; viability, T/C (second compound 0.1 µM, first compound 3.16 µM): 49.1%; viability, T/C (second compound 0.1 µM, first compound 10 µM): 10.6%; viability, T/C [23]: 86.9%; viability, T/C [24]: 67.3%; viability, T/C (second compound 0.316 µM, first compound 3.16 µM): 54.7%; viability, T/C (second compound 0.316 µM, first compound 10 µM): 9.27%; viability, T/C [29]: 83%; viability, T/C [30]: 72%; viability, T/C (second compound 1 µM, first compound 3.16 µM): 42%; viability, T/C (second compound 1 µM, first compound 10 µM): 5.51% |
| 587 | 516 | 472 | 416 | 515 | O=C(c1ccc(F)c(F)c1Nc1ccc(I)cc1F)N1CC(O)([C@@H]2CCCCN2)C1 + CNC(C)C(=O)NC1CN(S(=O)(=O)c2cccc(S(=O)(=O)N3CCC4CCC(C(=O)NC(c5ccccc5)c5ccccc5)N4C(=O)C(NC(=O)C(C)NC)C3)c2)CCC2CCC(C(=O)NC(c3ccccc3)c3ccccc3)N2C1=O | 76.6 | 87.8 | 112 | 108 | 82.2 | 22.4 | 95.7 | 99.2 | 107 | 98.9 | 99.8 | 83.1 | 111 | 99.7 | 95.1 | viability, T/C [8]: 99.8%; viability, T/C [11]: 69%; viability, T/C [12]: 24.4%; viability, T/C [13]: 93%; viability, T/C [14]: 74.1%; viability, T/C [17]: 65.8%; viability, T/C [18]: 20.6%; viability, T/C [19]: 98.9%; viability, T/C [20]: 100%; viability, T/C [23]: 59.2%; viability, T/C [24]: 20.4%; viability, T/C [25]: 98.3%; viability, T/C [26]: 114%; viability, T/C [29]: 70.7%; viability, T/C [30]: 21.9% |
